Results taken from patent publication US20140221301A1, “COMBINATION TREATMENT FOR CANCER” (priority 2011, published 2014).

Assays:
[1] = intravenous doses of 300 mg; cited from earlier work
[2] = test system: primary AML patient samples; test: Cell viability by Annexin V staining, primary AML patient samples; format: cell-based, human
Method: Cell growth and viability was assessed by the MTS assay (Promega, Madison, Wis.) according to the manufacturer's instructions. Apoptosis and cell death was measured by Annexin V-fluroscein isothiocyanate (FITC; Biovision Research Products, Mountain View, Calif.), propidium iodide staining and flow cytometry according to the manufacturer's instructions and as previously described^30.

## CN(C)c1cc(NC(=O)CNC(C)(C)C)c(O)c2c1C[C@H]1C[C@H]3[C@H](N(C)C)C(O)=C(C(N)=O)C(=O)[C@@]3(O)C(O)=C1C2=O [tigecycline]
[1]
  tolerability: well tolerated save for mild nausea
[2]; AML samples, 5 μM and 10 μM, 48 hours
  relation of induced cytotoxicity to mitochondrial mass: correlates with increasing mitochondrial mass
[2]; more resistant group of patients, n=7, 48 hours
  LD50: > 9 µM
[2]; sensitive subset of leukemia patients, n=13, 48 hours
  LD50: 5 µM
